{"source": "patent US10294244B2", "about": "“2,3-dihydro-thiazolo[3,2-A]pyridin-5-one derivatives, intermediates thereof, and their use as antibacterial agents” (Quretech Bio AB, priority 2014, dated 2019)", "tested_on": "C. trachomatis serovar LGV-L2", "test": "Inhibition of infectious Chlamydia progenies (C. trachomatis infectivity, reinfection of HeLa cells, IFU count)", "assay_type": "cell-based", "details": "infected HeLa cells, MOI 0.3, compound added 1 hpi, 44-48 h, relative to DMSO-treated control; for inhibition at 10 µM: 10 uM compound; for inhibition at 50 µM: 50 uM compound; for inhibition at 100 µM: 100 uM compound", "protocol": "Cell Culture, C. trachomatis Infections, and Determination of C. trachomatis Infectivity.\nHeLa cells were infected with C. trachomatis serovar LGV-L2 at an MOI of 0.3. At 1 hpi, RPMI media containing the different dilutions of the tested compounds in DMSO were added. The different compounds were dissolved to 20 mM in DMSO and were then diluted with RPMI media to be added at 2.5 to 100 μM. After 44-48 h incubation, the cells were osmotically lysed by the addition of cold sterile distilled water to release infectious EB progeny. 5×SPG was added to equalize the osmotic pressure to a 1×SPG isotonic condition. An equal amount of HBSS (Hanks balanced salt solution) (Gibco/Invitrogen) was added to the lysate (yielding a 1:1 dilution) and 10-fold serial dilutions of the resulting mixture was used to infect fresh HeLa cells. At 1 hpi, the inoculum was replaced with RPMI media and the infection allowed to progress for 44-48 hours before fixation and staining. Fixation was performed by adding methanol for 5 minutes and the cells were subsequently washed with phosphate buffered saline (PBS). The chlamydial inclusions were stained by a primary rabbit anti-Chlamydia antibody (generated in-house) and a secondary donkey anti-rabbit FITC-labelled antibody (Jackson ImmunoResearch). The DNA of the cells and Chlamydia was stained by the addition of DAPI. The stained cells were analyzed by an ArrayScan automated scanner (ArrayScan VTI HCS, Thermo Scientific). Data were presented as the relative numbers of IFUs in treated infections compared to the numbers of IFUs in DMSO-treated control infections.\nThe compounds of Examples 1-33 were tested for inhibition of infectious Chlamydia progenies at concentrations of 2.5 μM, 10 μM, 50 μM and 100 μM. In this document μM stands for micromolar. The compounds of the present disclosure were considered to have antibacterial activity if they provided 50% or more inhibition of infectious Chlamydia progenies using at least one of the tested concentrations in Table 1."}
{"smiles": "CS(=O)(=O)Nc1c(Cc2cccc3ccccc23)cc(=O)n2c1SC[C@H]2C(=O)Nc1ccccc1", "note": "[Example 25, Anilino{7-(methylsulfonylamino)-6-[(1-naphthyl)methyl]-4-oxo-1-thia-3a-aza-3-indanyl}formaldehyde]", "values": [{"measurement": "inhibition at 10 µM", "result": 97, "unit": "%"}, {"measurement": "inhibition at 50 µM", "result": 97, "unit": "%"}]}
{"smiles": "CC(=O)Nc1c(Cc2cccc3ccccc23)cc(=O)n2c1SC[C@H]2C(=O)Nc1ccccc1", "note": "[Example 26, 1-{3-Anilinocarbonyl-6-[(1-naphthyl)methyl]-4-oxo-1-thia-3a-aza-7-indanylamino}-1-ethanone]", "values": [{"measurement": "inhibition at 10 µM", "result": 54, "unit": "%"}, {"measurement": "inhibition at 50 µM", "result": 87, "unit": "%"}]}
{"smiles": "COC(=O)Nc1c(Cc2cccc3ccccc23)cc(=O)n2c1SC[C@H]2C(=O)Nc1ccccc1", "note": "[Example 27, {(3R)-7-(Methoxycarbonylamino)-6-[(1-naphthyl)methyl]-4-oxo-1-thia-3a-aza-3-indanyl}anilinoformaldehyde]", "values": [{"measurement": "inhibition at 10 µM", "result": 96, "unit": "%"}, {"measurement": "inhibition at 50 µM", "result": 98, "unit": "%"}]}
{"smiles": "O=C(O)[C@@H]1CSc2c(OCC3CC3)c(Cc3cccc4ccccc34)cc(=O)n21", "note": "[Example 28, (3R)-7-(Cyclopropylmethoxy)-6-[(1-naphthyl)methyl]-4-oxo-1-thia-3a-aza-3-indancarboxylic acid]", "values": [{"measurement": "inhibition at 100 µM", "result": 56, "unit": "%"}]}
{"smiles": "O=C(O)[C@@H]1CSc2c(C(F)(F)F)c(Cc3cccc4ccccc34)cc(=O)n21", "note": "[Example 29, (3R)-6-[(1-Naphthyl)methyl]-4-oxo-7-(trifluoromethyl)-1-thia-3a-aza-3-indancarboxylic acid]", "values": [{"measurement": "inhibition at 100 µM", "result": 56, "unit": "%"}]}
{"smiles": "CC(C)COc1c(Cc2cccc3ccccc23)cc(=O)n2c1SC[C@H]2C(=O)O", "note": "[Example 30, (3R)-7-Isobutoxy-6-[(1-naphthyl)methyl]-4-oxo-1-thia-3a-aza-3-indancarboxylic acid]", "values": [{"measurement": "inhibition at 50 µM", "result": 67, "unit": "%"}, {"measurement": "inhibition at 100 µM", "result": 90, "unit": "%"}]}
{"smiles": "Cc1cccc(Cc2cc(=O)n3c(c2N(C)C)SC[C@H]3C(=O)O)c1C", "note": "[Example 31, (3R)-7-(Dimethylamino)-4-oxo-6-[(2,3-xylyl)methyl]-1-thia-3a-aza-3-indancarboxylic acid]", "values": [{"measurement": "inhibition at 50 µM", "result": 29, "unit": "%"}, {"measurement": "inhibition at 100 µM", "result": 86, "unit": "%"}]}
{"smiles": "Cc1ccc(Cc2cc(=O)n3c(c2N(C)C)SC[C@H]3C(=O)O)c2ccccc12", "note": "[Example 32, (3R)-7-(Dimethylamino)-6-[(4-methyl-1-naphthyl)methyl]-4-oxo-1-thia-3a-aza-3-indancarboxylic acid]", "values": [{"measurement": "inhibition at 50 µM", "result": 91, "unit": "%"}, {"measurement": "inhibition at 100 µM", "result": 99, "unit": "%"}]}
{"smiles": "CC(C)Nc1c(Cc2cccc3ccccc23)cc(=O)n2c1SC[C@H]2C(=O)O", "note": "[Example 33, (3R)-7-(Isopropylamino)-6-[(1-naphthyl)methyl]-4-oxo-1-thia-3a-aza-3-indancarboxylic acid]", "values": [{"measurement": "inhibition at 100 µM", "result": 50, "unit": "%"}]}
